Results published in patent publication US7238691B2, “Piperidine derivatives and their use as modulators of chemokine (especially CCR3) activity” (AstraZeneca AB, priority 2001, dated 2007).

Columns and labels:
CCR3 = target: T1, CCR3 (Homo sapiens, UniProt P51677); experiment: Human eosinophil chemotaxis (eotaxin mediated); type: cell-based; conditions: compound at 1 μM
T1 construct: Human eosinophils were isolated from EDTA anticoagulated peripheral blood; endogenous in cells; host or cells: human peripheral blood eosinophils
T1 sequence (P51677 1-355): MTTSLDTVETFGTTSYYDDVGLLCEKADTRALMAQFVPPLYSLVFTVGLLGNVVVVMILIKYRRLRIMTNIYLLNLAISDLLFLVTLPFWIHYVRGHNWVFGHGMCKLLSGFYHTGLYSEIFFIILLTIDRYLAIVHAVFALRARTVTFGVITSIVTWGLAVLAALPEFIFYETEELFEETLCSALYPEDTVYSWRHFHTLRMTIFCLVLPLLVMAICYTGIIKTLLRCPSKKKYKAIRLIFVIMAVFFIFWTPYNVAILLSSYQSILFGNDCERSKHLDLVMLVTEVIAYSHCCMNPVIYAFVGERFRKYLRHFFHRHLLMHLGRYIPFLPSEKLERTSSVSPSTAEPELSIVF
Method: Human Eosinophil Chemotaxis
Human eosinophils were isolated from EDTA anticoagulated peripheral blood as previously described (Hansel et al., J. Immunol. Methods, 1991, 145, 105-110). The cells were resuspended at 10×10^6 ml^−1 in RPMI containing 200 μg/ml penicillin, 200 μg/ml streptomycin sulfate and supplemented with 10% HIFCS, at room temperature.
Eosinophils (700 μl) were pre-incubated for 15 mins at 37° C. with 7 μl of either vehicle or compound (100× required final concentration in 10% DMSO). The chemotaxis plate (ChemoTx, 3 μm pore, Neuroprobe) was loaded by adding 28 μl of a concentration of eotaxin 0.1 to 100 nM (a selective CCR3 agonist over this concentration range) containing a concentration of a compound according to the Examples or solvent to the lower wells of the chemotaxis plate. The filter was then placed over the wells and 25 μl of eosinophil suspension were added to the top of the filter. The plate was incubated for 1 hr at 37° C. in a humidified incubator with a 95% air/5% CO2 atmosphere to allow chemotaxis.
The medium, containing cells that had not migrated, was carefully aspirated from above the filter and discarded. The filter was washed once with phosphate buffered saline (PBS) containing 5 mM EDTA to remove any adherent cells. […] The number of eosinophils migrating was quantified according to the method of Strath et al., J. Immunol. […]

human H1 receptor = target: T2, human H1 receptor (Homo sapiens, UniProt P35367); experiment: Histamine H1 receptor binding, competition displacement of [3H]-pyrilamine; conditions: 1 nM [3H]-pyrilamine; membranes from recombinant CHO-K1 cells expressing the human H1 receptor; 1 hour at room temperature; read-out: H1 pKi/ [1328_S] (converted)
T2 construct: purchased Furoscreen S A, Brussels, Belgium (so in the source); host or cells: CHO-K1
Method: Histamine H1 receptor binding activity of compounds of the invention was assessed by competition displacement of 1 nM [3H]-pyrilamine (Amersham, Bucks, Product code TRK 608, specific activity 30Ci/mmol) to 2 μg membranes prepared from recombinant CHO-K1 cells expressing the human H1 receptor (Furoscreen S A, Brussels, Belgium, product code ES-390-M) in assay buffer (50 mM Tris pH 7.4 containing 2 mM MgCl2, 250 mM sucrose and 100 mM NaCl) for 1 hour at room temperature.

T2 sequence (P35367 whole entry): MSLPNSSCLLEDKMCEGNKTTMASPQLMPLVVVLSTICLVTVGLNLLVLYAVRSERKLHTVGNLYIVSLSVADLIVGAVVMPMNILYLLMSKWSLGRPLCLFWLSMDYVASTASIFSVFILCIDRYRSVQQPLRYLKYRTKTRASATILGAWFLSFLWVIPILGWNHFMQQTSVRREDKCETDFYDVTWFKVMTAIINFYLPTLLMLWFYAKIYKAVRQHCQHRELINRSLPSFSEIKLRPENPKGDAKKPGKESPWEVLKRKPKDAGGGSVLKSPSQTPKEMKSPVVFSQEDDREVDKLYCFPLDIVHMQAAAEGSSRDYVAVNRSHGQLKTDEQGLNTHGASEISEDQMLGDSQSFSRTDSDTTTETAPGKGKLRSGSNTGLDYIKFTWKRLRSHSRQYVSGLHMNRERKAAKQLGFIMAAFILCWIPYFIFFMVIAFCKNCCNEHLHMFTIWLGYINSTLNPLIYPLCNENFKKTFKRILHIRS

Ki (human H1 receptor) | Compound | inhibition at 1 µM (CCR3)
0.00794 µM | O=C(c1c[nH]c(=O)c2ccccc12)N1CCO[C@H](CN2CCC(Oc3ccc(Cl)c(Cl)c3)CC2)C1 [Example 73] | > 75%
0.0126 µM | O=C(c1cn2cc(F)ccc2n1)N1CCOC(CN2CCC(Oc3ccc(Cl)c(Cl)c3)CC2)C1 (stereo not drawn) [Example 3, 2-[(2-{[4-(3,4-dichlorophenoxy)piperidin-1-yl]methyl}morpholin-4-yl)carbonyl]-6-fluoroimidazo[1,2-a]pyridine] | –
0.1 µM | CS(=O)(=O)c1cccc(C(=O)N2CCOC(CN3CCC(Oc4ccc(Cl)c(Cl)c4)CC3)C2)c1 (stereo not drawn) [Example 4, 2-{[4-(3,4-dichlorophenoxy)piperidin-1-yl]methyl}-4-[3-(methylsulfonyl)benzoyl]morpholine] | –

Compound | Ki (human H1 receptor) | inhibition at 1 µM (CCR3)
CS(=O)(=O)c1cccc(C(=O)N2CCO[C@@H](CN3CCC(Oc4ccc(Cl)c(Cl)c4)CC3)C2)c1 [Example 5, (2S)-2-{[4-(3,4-Dichlorophenoxy)piperidin-1-yl]methyl}-4-[3-(methylsulfonyl)benzoyl]morpholine] | 0.02 µM | > 75%
